Test results taken from US20220143143A1, “USE OF ACTIVATORS OF THE ARYL HYDROCARBON RECEPTOR FOR TREATING GLUTEN-INDUCED GASTROINTESTINAL DISEASES” (McMaster University, priority 2019, published 2022).

What was measured:
Assay type in all cases: in vivo
NOD/DQ8 mice [1] = assay: Fecal lipocalin-2 quantification; conditions: gluten treated NOD/DQ8 mice; 1 μg/mouse i.p. at day 1, 10, 20 and 30; vs vehicle (DMSO)
NOD/DQ8 mice [2] = assay: Gut barrier function by Ussing chamber technique (jejunum); conditions: gluten treated NOD/DQ8 mice, 1 μg/mouse i.p. at day 1, 10, 20 and 30, vs vehicle (DMSO)
Experimental: Gut barrier function was assessed by a Ussing chamber technique. Briefly, sections of jejunum from each mouse were mounted in a Ussing Chamber with an opening of 0.6 cm^2. Net active transport across the epithelium was measured via a short circuit current response (Isc, μA) injected through the tissue under voltage-clamp conditions. Baseline Isc (μA/cm^2) was recorded at equilibrium 20 min after mounting jejunum sections. Mucosal-to-serosal transport of macromolecules was assessed by adding ^51Cr-EDTA in the luminal side of the chamber. ^51Cr-EDTA fluxes were calculated by measuring the proportion of radioactive ^51Cr-EDTA detected in the serosal side of the chamber after 2 hours compared to the radioactive ^51Cr-EDTA placed in the luminal side at the beginning of experiment.

AhR pathway genes = assay: qPCR expression of AhR pathway and inflammation genes in duodenum; conditions: gluten treated NOD/DQ8 mice; 1 μg/mouse i.p. at day 1, 10, 20 and 30; vs vehicle (DMSO)
Experimental: AhR activation in duodenal biopsies was measured through qPCR to assess the expression of AhR pathway genes: AhR, CYP1A1, IL-22 and IL-17. IL-15 gene expression was also measured by qPCR as an inflammation marker. Total RNA was isolated from mouse duodenum samples using RNeasy Mini Kit (Qiagen, Hilden, Germany) with the DNase treatment, according to the manufacturer's instructions. RNA concentration was determined using a NanoDrop spectrophotometer […]. Quantitative RT-PCR was performed using iScript Reverse Transcriptase (Bio-Rad) and then a SsoFast EvaGreen Supermix (Bio-Rad) in a Mastercycler ep realplex apparatus (Eppendorf) with specific mouse oligonucleotides. Additional information on the primers used is available in Table 2. qPCR data were analyzed using the 2-ΔΔCt quantification method with mouse Gapdh as the endogenous control.

NOD/DQ8 mice [3] = assay: Histology and immunohistochemistry of proximal small intestine (V/C ratios, CD3+ IEL counts); conditions: gluten treated NOD/DQ8 mice; 1 μg/mouse i.p. at day 1, 10, 20 and 30; vs vehicle (DMSO)
Experimental: For histology and immunohistochemistry studies, cross-sections of the proximal small intestine were fixed in 10% formalin and embedded in paraffin. Enteropathy was determined by measuring villus-to-crypt (V/C) ratios in a blinded fashion. The presence of IELs (intraepithelial lymphocytes) in the sections was determined by immunostaining for CD3+ cells. Briefly, sections were stained with polyclonal rabbit anti-mouse CD3 (Dako) and in each section, and intraepithelial lymphocytosis was determined by counting CD3+ IELs per 20 enterocytes in five randomly chosen villus tips.

O=Cc1c2c(cc3c1=Nc1ccccc1-3)=Nc1ccccc1-2 [Ficz, 6-formylindolo(3,2-b) carbazole]
other markers of overall gut inflammation (fecal lipocalin-2, FIG. 17) (NOD/DQ8 mice [1]): improved | paracellular permeability (NOD/DQ8 mice [2]; 51Cr-EDTA): improved | ion transport (NOD/DQ8 mice [2]): improved | intestinal IL-15 expression (AhR pathway genes): did not affect | intestinal expression of AhR target genes (Cyp1a1, Il22, Il17) (AhR pathway genes): even higher expression | IEL counts (NOD/DQ8 mice [3]): improved | V/C ratios (NOD/DQ8 mice [3]): improved
